Assay results as given in ChEMBL document CHEMBL3886401, “Disubstituted benzothienyl-pyrrolotriazines and uses thereof” (2015).

Experiments:
[1] = target: Fibroblast growth factor receptor 1 (Homo sapiens, UniProt P11362); test: High ATP Kinase Assay: For the assay, 50 nl of each stock solution of the test compound in DMSO was pipetted into a black, low-volume 384-well microtiter plate (Greiner Bio-One, Frickenhausen, Germany) 2 Î¼l of a solution of the above FGFR-1 fusion protein in aqueous assay buffer [8 mM MOPS pH 7.0, 10 mM magnesium acetate, 1.0 mM dithiothreitol, 0.05% (w/v) bovine serum albumin (BSA), 0.07% (v/v) …
Sequence of Fibroblast growth factor receptor 1 (P11362 whole entry, the tested form may be a part): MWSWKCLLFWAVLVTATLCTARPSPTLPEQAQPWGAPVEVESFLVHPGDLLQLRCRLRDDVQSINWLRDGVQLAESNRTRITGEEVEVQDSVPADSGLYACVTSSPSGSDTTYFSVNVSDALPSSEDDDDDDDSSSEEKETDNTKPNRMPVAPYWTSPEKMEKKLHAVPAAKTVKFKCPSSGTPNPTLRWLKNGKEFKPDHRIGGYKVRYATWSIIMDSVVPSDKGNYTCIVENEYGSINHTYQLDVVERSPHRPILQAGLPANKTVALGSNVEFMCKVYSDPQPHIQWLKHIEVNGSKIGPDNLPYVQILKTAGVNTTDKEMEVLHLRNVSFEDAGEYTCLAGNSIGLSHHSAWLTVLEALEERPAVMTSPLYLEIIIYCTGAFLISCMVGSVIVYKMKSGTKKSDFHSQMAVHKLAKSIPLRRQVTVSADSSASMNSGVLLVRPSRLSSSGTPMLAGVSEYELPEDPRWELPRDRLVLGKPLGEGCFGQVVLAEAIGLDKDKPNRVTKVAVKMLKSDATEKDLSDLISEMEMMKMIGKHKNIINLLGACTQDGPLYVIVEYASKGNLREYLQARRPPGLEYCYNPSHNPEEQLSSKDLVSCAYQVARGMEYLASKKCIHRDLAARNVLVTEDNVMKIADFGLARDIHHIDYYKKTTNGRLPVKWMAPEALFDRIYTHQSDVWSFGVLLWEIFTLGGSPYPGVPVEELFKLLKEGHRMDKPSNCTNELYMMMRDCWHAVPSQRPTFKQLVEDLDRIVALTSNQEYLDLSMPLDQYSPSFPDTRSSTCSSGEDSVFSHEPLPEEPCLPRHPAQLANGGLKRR

[2] = target: Fibroblast growth factor receptor 3 (Homo sapiens, UniProt P22607); test: Kinase Assay: For the assay, 50 nl of each stock solution of the test compound in DMSO was pipetted into a black, low-volume 384-well microtiter plate (Greiner Bio-One, Frickenhausen, Germany) 2 ul of a solution of the above FGFR-3 fusion protein in aqueous assay buffer [8 mM MOPS pH 7.0, 10 mM magnesium acetate, 1.0 mM dithiothreitol, 0.05% (w/v) bovine serum albumin (BSA), 0.07% (v/v) Tween-20 …
Sequence of Fibroblast growth factor receptor 3 (P22607 whole entry, the tested form may be a part): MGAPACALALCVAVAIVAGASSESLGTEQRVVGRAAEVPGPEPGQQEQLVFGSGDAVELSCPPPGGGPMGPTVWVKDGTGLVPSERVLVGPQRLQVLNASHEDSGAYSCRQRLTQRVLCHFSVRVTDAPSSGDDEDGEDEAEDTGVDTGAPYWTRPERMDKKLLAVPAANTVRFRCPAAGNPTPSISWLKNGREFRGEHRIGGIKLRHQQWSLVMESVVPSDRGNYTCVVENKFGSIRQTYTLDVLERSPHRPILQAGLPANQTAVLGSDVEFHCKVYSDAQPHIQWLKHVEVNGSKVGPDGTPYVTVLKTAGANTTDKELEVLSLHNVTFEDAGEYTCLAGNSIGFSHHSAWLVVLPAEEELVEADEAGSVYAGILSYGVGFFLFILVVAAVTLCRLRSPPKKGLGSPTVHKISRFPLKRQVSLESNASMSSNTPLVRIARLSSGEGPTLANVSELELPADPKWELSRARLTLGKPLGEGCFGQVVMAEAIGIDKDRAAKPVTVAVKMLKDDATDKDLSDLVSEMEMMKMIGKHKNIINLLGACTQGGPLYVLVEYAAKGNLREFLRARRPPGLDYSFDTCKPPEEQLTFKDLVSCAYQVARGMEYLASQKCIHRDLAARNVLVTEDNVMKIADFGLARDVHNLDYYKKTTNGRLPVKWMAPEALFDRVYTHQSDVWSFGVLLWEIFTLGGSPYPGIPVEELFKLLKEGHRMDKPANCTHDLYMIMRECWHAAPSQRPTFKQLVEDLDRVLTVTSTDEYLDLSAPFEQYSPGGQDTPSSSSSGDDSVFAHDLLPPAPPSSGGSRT

| Structure (SMILES) | IC50 [1] | IC50 [2] |
| --- | --- | --- |
| COCc1c(-c2cc3cc(C)cc(OC)c3s2)c2c(N)ncnn2c1C#N | 55.3 nM | 58.1 nM |
| COCc1c(CN2CCNC(=O)C2)c(-c2cc3cc(C)cc(OC)c3s2)c2c(N)ncnn12 | 3.9 nM | – |

The remaining compounds from weak to strong by IC50 [1], led by results:

| IC50 [1] | IC50 [2] | Structure (SMILES) |
| --- | --- | --- |
| 39.1 nM | – | CCOCc1c(-c2cc3cc(C)cc(OC)c3s2)c2c(N)ncnn2c1C#N |
| 8 nM | – | CCOCc1c(CN2CCNC(=O)C2)c(-c2cc3cc(C)cc(OC)c3s2)c2c(N)ncnn12 |
| 1.4 nM | 0.7 nM | COc1cc(C)cc2cc(-c3c(CNC(C)=O)c(CNC(C)=O)n4ncnc(N)c34)sc12 |
